Reference: patent US6537998B1, “Gonadotropin-releasing hormone receptor antagonists and methods relating thereto” (Neurocrine Biosciences, Inc., priority 1999, dated 2003)
pKi: −log10 of the molar value.

Target: T1, GnRH receptor (Homo sapiens, UniProt P30968)
T1 construct: expressed in transfected cells
T1 sequence (P30968 1-328): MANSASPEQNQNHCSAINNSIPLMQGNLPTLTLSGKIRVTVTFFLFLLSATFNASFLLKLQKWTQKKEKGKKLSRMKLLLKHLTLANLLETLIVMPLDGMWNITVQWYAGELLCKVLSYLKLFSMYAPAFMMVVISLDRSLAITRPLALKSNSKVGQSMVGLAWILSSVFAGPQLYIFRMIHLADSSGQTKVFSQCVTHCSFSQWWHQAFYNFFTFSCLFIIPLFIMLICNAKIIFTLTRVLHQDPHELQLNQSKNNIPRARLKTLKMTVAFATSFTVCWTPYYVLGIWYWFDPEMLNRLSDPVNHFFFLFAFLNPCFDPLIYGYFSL
Experiment: GnRH Receptor Membrane Binding Assay
Settings: calculated from IC50 for displacement of radiolabeled ligand ([125I]-labeled GnRH peptide) from the GnRH receptor, Cheng-Prusoff
Experimental: Activity of GnRH receptor antagonists are typically calculated from the IC50 as the concentration of a compound necessary to displace 50% of the radiolabeled ligand from the GnRH receptor, and is reported as a “Ki” value calculated by the following equation: [formula]
where L=radioligand and KD=affinity of radioligand for receptor (Cheng and Prusoff, Biochem. Pharmacol. 22:3099, 1973). GnRH receptor antagonists of this invention have a Ki of 100 μM or less. In a preferred embodiment of this invention, the GnRH receptor antagonists have a Ki of less than 10 μM, and more preferably less than 1 μM. More preferred compounds include: 1-1, 1-2-5, 12, 13-15, 19, 21, 27, 31, 32, 34, 37, 55, 58, 64, 73, 2B, 2D, 3A, 3B, 3D, 4A, 4B, 4C, 4D, 4G, 4H, 5A and 5B (see Examples below).
Radio-iodination of GnRH Peptide
The GnRH analog is labeled by the chloramine-T method. To 10 μg of peptide in 20 μl of 0.5M sodium phosphate buffer, pH 7.6, is added 1 mCi of Na125I, followed by 22.5 μg chloramine-T and the mixture vortexed for 20 sec. The reaction is stopped by the addition of 60 μg sodium metabisulfite and the free iodine is removed by passing the iodinated mixture through a C-8 Sep-Pak cartridge (Millipore Corp., Milford, Mass.). The peptide is eluted with a small volume of 80% acetonitrile/water. The recovered labeled peptide is further purified by reverse phase HPLC on a Vydac C-18 analytical column (The Separations Group, Hesperia, Calif.) on a Beckman 334 gradient HPLC system using a gradient of acetonitrile in 0.1% TFA. The purified radioactive peptide is stored in 0.1% BSA/20% acetonitrile/0.1% TFA at […] and can be used for up to 4 weeks.
GnRH Receptor Membrane Binding Assay
Cells stably, or transiently, transfected with GnRH receptor expression vectors are harvested, resuspended in 5% sucrose and homogenized using a polytron homogenizer (2×15 sec). Nuclei are removed by centrifugation (3000×g for 5 min.), and the supernatant centrifuged (20,000×g for 30 min, 4° C.) to collect the membrane fraction. The final membrane preparation is resuspended in binding buffer (10 mM Hepes (pH 7.5), 150 mM NaCl, and 0.1% BSA) and stored at −70° C. Binding reactions are performed in a Millipore MultiScreen 96-well filtration plate assembly with polyethylenimine coated GF/C membranes. The reaction is initiated by adding membranes (40 ug protein in 130 ul binding buffer) to 50 ul of [^125I]-labeled GnRH peptide (˜100,000 cpm), and 20 ul of competitor at varying concentrations. The reaction is terminated after 90 minutes by application of vacuum and washing (2×) with phosphate buffered saline. Bound radioactivity is measured using 96-well scintillation counting (Packard Topcount) or by removing the filters from the plate and direct gamma counting. Ki values are calculated from competition binding data using non-linear least squares regression using the Prism software package (GraphPad Software).

Compound | pKi
COc1cccc(-c2c(C)n(Cc3ccccc3F)c3nc(C(C)(C)C)c(CN(C)CCc4ccccn4)n3c2=O)c1 [Example 1-1, 2-(tert-butyl)-3-[N-methyl-N-(2-pyridylethyl)aminomethyl]-5-(3-methoxyphenyl)-6-methyl-7-(2-fluorobenzyl)immidazolo[1,2-a]pyrimid-4-one] | > 6.00
COc1cccc(-c2c(C)n(Cc3ccccc3F)c3nc(C(C)(C)C)c(CN(C)Cc4ccccn4)n3c2=O)c1 [Example 1-12] | > 6.00
Cc1c(-c2ccccc2)c(=O)n2c(CN(C)Cc3ccco3)c(C(C)(C)C)nc2n1Cc1ccccc1F [Example 1-19] | > 6.00
COc1cccc(-c2c(C)n(Cc3ccccc3F)c3nc(C4(C)CCOC4=O)c(CN(C)Cc4ccccc4)n3c2=O)c1 (stereo not shown) [Example 1-21] | > 6.00
COc1cccc(-c2c(C)n(Cc3ccccc3F)c3nc(C4(C)CCOC4=O)c(CN(C)Cc4ccco4)n3c2=O)c1 (stereo not shown) [Example 1-27] | > 6.00
CC(=O)c1cccc(-c2c(C)n(Cc3ccccc3F)c3nc(C(C)(C)C)c(CN(C)Cc4ccccc4)n3c2=O)c1 [Example 1-31] | > 6.00
CC(=O)c1cccc(-c2c(C)n(Cc3ccccc3F)c3nc(C(C)(C)C)c(CN(C)CCc4ccccn4)n3c2=O)c1 [Example 1-32] | > 6.00
COc1cccc(-c2c(C)n(Cc3ccccc3F)c3nc(C(C)(C)C)c(CN(C)[C@H](C)c4ccccc4)n3c2=O)c1 [Example 1-37] | > 6.00
Cc1c(-c2ccccc2F)c(=O)n2c(CN(C)CCc3ccccn3)c(C(C)(C)C)nc2n1Cc1ccccc1F [Example 1-55] | > 6.00
CCN(CC)CCN(C)Cc1c(C(C)(C)C)nc2n(Cc3ccccc3F)c(C)c(-c3ccc4c(c3)OCO4)c(=O)n12 [Example 1-73] | > 6.00
COC(=O)C(C)(C)c1nc2n(Cc3ccccc3F)c(C)c(-c3cccc(OC)c3)c(=O)n2c1CN(C)Cc1ccccc1 [Example 4A, 2-(1-methoxycarbonyl-1-methylethyl)-3-(N-methyl-N-benzylaminomethyl)-5-(3-methoxyphenyl)-6-methyl-7-(2-flurorbenzyl)imidazolo[1,2-a]pyrimid-4-one] | > 6.00
COC(=O)C(C)(C)c1nc2n(Cc3ccccc3F)c(C)c(-c3cccc(OC)c3)c(=O)n2c1CN(C)Cc1ccco1 [Example 4D] | > 6.00
COC(=O)C(C)(C)c1nc2n(Cc3ccccc3F)c(C)c(-c3cccc(OC)c3)c(=O)n2c1CNCc1ccccn1 [Example 4G] | > 6.00
COC(=O)C(C)(C)c1nc2n(Cc3ccccc3F)c(C)c(-c3cccc(OC)c3F)c(=O)n2c1CN(C)CCc1ccccn1 [Example 4H] | > 6.00
CCOC(=O)Cc1nc2n(Cc3ccccc3F)c(C)c(-c3cccc(OC)c3)c(=O)n2c1CN(C)CCc1ccccn1 [Example 5A, 2-Ethoxycarbonylmethyl-3-{N-methyl-N-[2-(2-pyridyl)ethyl]aminomethyl}-5-(3-methoxyphenyl)-6-methyl-7-(2-fluorobenzyl)imidazolo[1,2-a]pyrimid-4-one] | > 6.00
CCOC(=O)Cc1nc2n(Cc3ccccc3F)c(C)c(-c3cccc(OC)c3)c(=O)n2c1CN(C)Cc1ccccc1 [Example 5B, 2-ethoxycarbonylmethyl-3-{N-methyl-N-benzyl)-5-(3-methoxyphenyl)-6-methyl-7-(2-fluorobenzyl)imidazolo[1,2-a]pyrimid-4-one] | > 6.00
